US8859018B2, “Delivery carrier for antimicrobial essential oils” (Nestec S.A., priority 2010, dated 2014)

Key:
Assay in all cases: Challenge test with moulds in MOS / MAS; on Week 1 (Log cfu/g): key: VG: growth; NVG: no growth; on Week 2 (Log cfu/g): key: VG: growth; NVG: no growth; on Week 3 (Log cfu/g): key: VG: growth; NVG: no growth; on Week 4 (Log cfu/g): key: VG: growth; NVG: no growth
Format in all cases: cell-based
Details in all cases: for Week 0 (Log cfu/g) / Week 1 (Log cfu/g) / Week 2 (Log cfu/g) / Week 3 (Log cfu/g) / Week 4 (Log cfu/g): 0.10%; for mould growth: KS 0.10%
[1] = system: Eurotium amstelodami (mould); on Week 1 (Log cfu/g): key: VG: growth; NVG: no growth; on Week 2 (Log cfu/g): key: VG: growth; NVG: no growth; on Week 3 (Log cfu/g): key: VG: growth; NVG: no growth; on Week 4 (Log cfu/g): key: VG: growth; NVG: no growth
Procedure: (§1) Target microorganisms used for the challenge tests (CT) were Zygosaccharomyces bailii (yeast), Aspergillus niger (mould), Penicillium nalgiovense (mould) and Eurotium amstelodami (mould).
(§2) Stock culture of the mould (mould spores suspended in Tryptone Salt 0.1% diluent) was revived on RBA plates by doing a 3-point inoculation. The inoculated RBA plates were incubated at 30° C. for 36 hours or until the colonies sporulated. The spores were then aseptically sub-cultured onto PDA plates for mass harvesting of the spores. The inoculated PDA plates were then incubated for 30° C. for 36 hours or until the colonies sporulated. Then, the spores were aseptically harvested with a sterile cotton swabs and suspended in sterile Tryptone Salt 0.1% diluent. The suspensions were analyzed for mould spore counts on DG18 plates as well as for microbial contamination on PCA with Cycloheximide by spread plating 0.1-0.5 ml of suspension onto the agar plates respectively. Before the challenge test is initiated, the suspension inoculated with the mould spores was diluted aseptically with sterile Tryptone Salt 0.1% to the desired level such that the inoculation level in the product would be 2-3 log of colony-forming-units (cfu) of moulds per gram of product.
(§3) Challenge Test with moulds was according to the following steps: 1) Add 100 g of MOS into a 250 ml sterile Schott bottle with screw-cap cover; 2) Add 0.1 to 2 ml of mould (A. niger/P. nalgiovence/E. amstelodami) inoculum to meet the target inoculum of 10^2-10^3 cfu/g of MOS into the 100 g MOS and shake to mix well; 3) Pour 35 g of the inoculated MOS into a petri dish. Perform this in duplicate; 4) Pipette 1 g of inoculated MOS from the Schott bottle into 9 ml sterile Tryptone Salt 0.1% diluents and vortex. Perform this in duplicate; 5) Plate 0.1-0.5 ml of inoculated Tryptone Salt 0.1% onto DG18 plates at appropriate dilutions by Spread Plate Method. Incubate the agar plates at 25° C. for 5 days to enumerate the initial mould count; 6) Incubate the inoculated MOS in petri dishes at 30° C. for a week. Monitor for mould growth by visual observation after one week. Perform this mould growth monitoring for a period of 4 weeks; 7) The control was prepared by repeating steps 3 to 6 without using any inoculum. The control was plated onto PCA with Cycloheximide plates.
(§4) The method for producing MAS was the same as for the MOS production in experiment 4. The preparation of the microorganism cultures as well as the challenge tests were identical to the ones described in experiment 4 as well.

[2] = system: Aspergillus niger (mould); on Week 1 (Log cfu/g): key: VG: growth; NVG: no growth; on Week 2 (Log cfu/g): key: VG: growth; NVG: no growth; on Week 3 (Log cfu/g): key: VG: growth; NVG: no growth; on Week 4 (Log cfu/g): key: VG: growth; NVG: no growth
Procedure: as §1, §2, §3, §4

[3] = system: Penicillium nalgiovense (mould); on Week 1 (Log cfu/g): key: VG: growth; NVG: no growth; on Week 2 (Log cfu/g): key: VG: growth; NVG: no growth; on Week 3 (Log cfu/g): key: VG: growth; NVG: no growth; on Week 4 (Log cfu/g): key: VG: growth; NVG: no growth
Procedure: as §1, §2, §3, §4

[4] = MAGGI Abalone Sauce, age 0 month
[5] = MAGGI Abalone Sauce, age 1 month
[6] = MAGGI Abalone Sauce, age 3 month
[7] = MAGGI Abalone Sauce, age 6 month
[8] = MAGGI Abalone Sauce, age 10 month
[9] = MAGGI Abalone Sauce, age 12 month
[10] = MAGGI Abalone Sauce, up to 12 months, clove leaf oil 0.06 wt % and 0.15 wt %
[11] = MAGGI Oyster Sauce, garlic EO 0.06 wt % and 0.12 wt %
[12] = MAGGI Oyster Sauce, age 0 month

With C/C=C/C=C/C(=O)[O-].[K+] [KS, potassium sorbate] the “Week 0 (Log cfu/g)” value [1, 4] was 2.93 Log cfu/g, the “Week 1 (Log cfu/g)” value [1, 4] was “NVG” and the “Week 2 (Log cfu/g)” value [1, 4] was “NVG”. For the same compound, the “Week 3 (Log cfu/g)” value [1, 4] was “NVG”, the “Week 4 (Log cfu/g)” value [1, 4] was “NVG” and the “Week 0 (Log cfu/g)” value [1, 5] was 1.54 Log cfu/g. For the same compound, the “Week 1 (Log cfu/g)” value [1, 5] was “NVG”, the “Week 2 (Log cfu/g)” value [1, 5] was “NVG” and the “Week 3 (Log cfu/g)” value [1, 5] was “NVG”. For the same compound, the “Week 4 (Log cfu/g)” value [1, 5] was “NVG”, the “Week 0 (Log cfu/g)” value [1, 6] was 2.69 Log cfu/g and the “Week 1 (Log cfu/g)” value [1, 6] was “NVG”. The “Week 2 (Log cfu/g)” value [1, 6] was “NVG”, the “Week 3 (Log cfu/g)” value [1, 6] was “NVG” and the “Week 4 (Log cfu/g)” value [1, 6] was “NVG”. The “Week 0 (Log cfu/g)” value [1, 7] was 2.67 Log cfu/g, the “Week 1 (Log cfu/g)” value [1, 7] was “NVG” and the “Week 2 (Log cfu/g)” value [1, 7] was “NVG”. The “Week 3 (Log cfu/g)” value [1, 7] was “NVG”, the “Week 4 (Log cfu/g)” value [1, 7] was “NVG” and the “Week 0 (Log cfu/g)” value [1, 8] was 3.80 Log cfu/g. For the same compound, the “Week 1 (Log cfu/g)” value [1, 8] was “NVG”, the “Week 2 (Log cfu/g)” value [1, 8] was “NVG” and the “Week 3 (Log cfu/g)” value [1, 8] was “NVG”. The “Week 4 (Log cfu/g)” value [1, 8] was “NVG”, the “Week 0 (Log cfu/g)” value [1, 9] was 2.38 Log cfu/g and the “Week 1 (Log cfu/g)” value [1, 9] was “NVG”. The “Week 2 (Log cfu/g)” value [1, 9] was “NVG”, the “Week 3 (Log cfu/g)” value [1, 9] was “NVG” and the “Week 4 (Log cfu/g)” value [1, 9] was “NVG”. For the same compound, the mould growth [1, 10] was “not detected”, the mould growth [1, 11] was “not detected” and the “Week 0 (Log cfu/g)” value [1, 12] was 2.204 Log cfu/g. The “Week 1 (Log cfu/g)” value [1, 12] was “NVG”, the “Week 2 (Log cfu/g)” value [1, 12] was “NVG” and the “Week 3 (Log cfu/g)” value [1, 12] was “NVG”. For the same compound, the “Week 4 (Log cfu/g)” value [1, 12] was “NVG”, the “Week 0 (Log cfu/g)” value [2, 4] was 1.9 Log cfu/g and the “Week 1 (Log cfu/g)” value [2, 4] was “NVG”. For the same compound, the “Week 2 (Log cfu/g)” value [2, 4] was “NVG”, the “Week 3 (Log cfu/g)” value [2, 4] was “NVG” and the “Week 4 (Log cfu/g)” value [2, 4] was “NVG”. The “Week 0 (Log cfu/g)” value [2, 5] was 1.15 Log cfu/g, the “Week 1 (Log cfu/g)” value [2, 5] was “NVG” and the “Week 2 (Log cfu/g)” value [2, 5] was “NVG”. For the same compound, the “Week 3 (Log cfu/g)” value [2, 5] was “NVG”, the “Week 4 (Log cfu/g)” value [2, 5] was “NVG” and the “Week 0 (Log cfu/g)” value [2, 6] was 2.19 Log cfu/g. The “Week 1 (Log cfu/g)” value [2, 6] was “NVG”, the “Week 2 (Log cfu/g)” value [2, 6] was “NVG” and the “Week 3 (Log cfu/g)” value [2, 6] was “NVG”. For the same compound, the “Week 4 (Log cfu/g)” value [2, 6] was “NVG”, the “Week 0 (Log cfu/g)” value [2, 7] was 2.16 Log cfu/g and the “Week 1 (Log cfu/g)” value [2, 7] was “NVG”. For the same compound, the “Week 2 (Log cfu/g)” value [2, 7] was “NVG”, the “Week 3 (Log cfu/g)” value [2, 7] was “NVG” and the “Week 4 (Log cfu/g)” value [2, 7] was “NVG”. For the same compound, the “Week 0 (Log cfu/g)” value [2, 8] was 3.67 Log cfu/g, the “Week 1 (Log cfu/g)” value [2, 8] was “NVG” and the “Week 2 (Log cfu/g)” value [2, 8] was “NVG”. For the same compound, the “Week 3 (Log cfu/g)” value [2, 8] was “NVG”, the “Week 4 (Log cfu/g)” value [2, 8] was “NVG” and the “Week 0 (Log cfu/g)” value [2, 9] was 2.96 Log cfu/g. The “Week 1 (Log cfu/g)” value [2, 9] was “NVG”, the “Week 2 (Log cfu/g)” value [2, 9] was “NVG” and the “Week 3 (Log cfu/g)” value [2, 9] was “NVG”. The “Week 4 (Log cfu/g)” value [2, 9] was “NVG”, the mould growth [2, 10] was “not detected” and the mould growth [2, 11] was “not detected”. For the same compound, the “Week 0 (Log cfu/g)” value [2, 12] was 3.114 Log cfu/g, the “Week 1 (Log cfu/g)” value [2, 12] was “NVG” and the “Week 2 (Log cfu/g)” value [2, 12] was “NVG”. The “Week 3 (Log cfu/g)” value [2, 12] was “NVG”, the “Week 4 (Log cfu/g)” value [2, 12] was “NVG” and the “Week 0 (Log cfu/g)” value [3, 4] was 1.54 Log cfu/g. The “Week 1 (Log cfu/g)” value [3, 4] was “NVG”, the “Week 2 (Log cfu/g)” value [3, 4] was “NVG” and the “Week 3 (Log cfu/g)” value [3, 4] was “NVG”. For the same compound, the “Week 4 (Log cfu/g)” value [3, 4] was “NVG”, the “Week 0 (Log cfu/g)” value [3, 5] was 1.73 Log cfu/g and the “Week 1 (Log cfu/g)” value [3, 5] was “NVG”. The “Week 2 (Log cfu/g)” value [3, 5] was “NVG”, the “Week 3 (Log cfu/g)” value [3, 5] was “NVG” and the “Week 4 (Log cfu/g)” value [3, 5] was “NVG”. For the same compound, the “Week 0 (Log cfu/g)” value [3, 6] was 2.71 Log cfu/g, the “Week 1 (Log cfu/g)” value [3, 6] was “NVG” and the “Week 2 (Log cfu/g)” value [3, 6] was “NVG”. For the same compound, the “Week 3 (Log cfu/g)” value [3, 6] was “NVG”, the “Week 4 (Log cfu/g)” value [3, 6] was “NVG” and the “Week 0 (Log cfu/g)” value [3, 7] was 2.03 Log cfu/g. The “Week 1 (Log cfu/g)” value [3, 7] was “NVG”, the “Week 2 (Log cfu/g)” value [3, 7] was “NVG” and the “Week 3 (Log cfu/g)” value [3, 7] was “NVG”. The “Week 4 (Log cfu/g)” value [3, 7] was “NVG”, the “Week 0 (Log cfu/g)” value [3, 8] was 3.86 Log cfu/g and the “Week 1 (Log cfu/g)” value [3, 8] was “NVG”. For the same compound, the “Week 2 (Log cfu/g)” value [3, 8] was “NVG”, the “Week 3 (Log cfu/g)” value [3, 8] was “NVG” and the “Week 4 (Log cfu/g)” value [3, 8] was “NVG”. The “Week 0 (Log cfu/g)” value [3, 9] was 3.26 Log cfu/g, the “Week 1 (Log cfu/g)” value [3, 9] was “NVG” and the “Week 2 (Log cfu/g)” value [3, 9] was “NVG”. For the same compound, the “Week 3 (Log cfu/g)” value [3, 9] was “NVG”, the “Week 4 (Log cfu/g)” value [3, 9] was “NVG” and the mould growth [3, 10] was “not detected”. The mould growth [3, 11] was “not detected”, the “Week 0 (Log cfu/g)” value [3, 12] was 4.079 Log cfu/g and the “Week 1 (Log cfu/g)” value [3, 12] was “NVG”. For the same compound, the “Week 2 (Log cfu/g)” value [3, 12] was “NVG”, the “Week 3 (Log cfu/g)” value [3, 12] was “NVG” and the “Week 4 (Log cfu/g)” value [3, 12] was “NVG”.
